Reference: patent publication US12662688B2, “Site-selective deuteration of amino acids through dual protein catalysis” (Wisconsin Alumni Research Foundation, priority 2022, dated 2026)

Columns and labels:
DsaD/E complex [1] = experiment: Analytical-scale Cα/Cβ H/D exchange with purified DsaD and DsaE; assay type: biochemical, Streptomyces scopuliridis; settings: 1 mM Ile, 0.05 mol % DsaD and DsaE (1:1), D2O, 37° C., 8 h
DsaD [2] = biological target: T1, DsaD (Streptomyces scopuliridis, UniProt A0A0D5CCB2); experiment: UV-vis spectroscopy of amino acid binding to DsaD; settings: 20 μM DsaD, pH 8.0, 25° C.
Procedure: UV-Vis Spectroscopy: Data were collected between 600 and 300 nm on a UV-2600 Shimadzu spectrophotometer (Shimadzu, Kyoto, Japan) with a semi-micro quartz cuvette (Starna Cells, Atascadero, California, USA) at 25° C. DsaD stock solutions were diluted to 20 μM in 50 mM sodium phosphate pH 8.0. For observation of substrate binding, amino acids were added at concentrations ranging from 2.5-10 mM. Spectra from 600-300 nm were collected after a 2-minute incubation period. Amino acid stocks were prepared as 100 mM stocks in deionized water.

DsaD/E complex [3] = experiment: Preparative-scale Cα/Cβ-deuteration with DsaD and DsaE clarified lysates in D2O; assay type: biochemical, Streptomyces scopuliridis
Procedure: (§1) FIG. 5. ^1H NMR analysis of site-selective deuteration of L-Leu. Reaction conditions: 20 mM L-Leu 2.5% v/v DsaD clarified lysate, 2.5% v/v DsaE clarified lysate (when needed), 50 mM sodium phosphate (pD 8.4), 0.1 mM PLP, D2O (99.9% D).
(§2) FIG. 8. Preparative-scale and site-selective deuteration of amino acids. Conditions: 10-20 mM amino acid, 2.5% v/v DsaD clarified lysate, 2.5% v/v DsaE clarified lysate, 50 mM sodium phosphate (pD 8.4), 0.1 mM PLP, D2O (99.9%).
(§3) General procedure for milligram-scale biocatalytic deuteration: A 4-dram scintillation vial was charged with amino acid (10-20 mM final concentration), Na3PO4 buffer pD 8.4 (50 mM final concentration), PLP (100 μM final concentration), DsaD clarified cell lysate (2.5% v/v), DsaE clarified cell lysate (if applicable) (2.5% v/v), and D2O (or dH2O) to the appropriate final volume. The reaction vessel was placed in an incubator at 37° C. for 16 h. Reaction progress was monitored by UPLC-MS. After reaction completion, the reaction mixture was quenched with an equivalent volume of acetone and centrifuged (4,000 rpm, 10 min) to remove denatured protein. Supernatant was transferred to a clean beaker, the decanted supernatant was concentrated to remove acetone by rotary evaporation and loaded onto a preparative reverse-phase C18 column pre-equilibrated with water. Purification was performed via gradient elution on an Isolera One Flash Purification system (Biotage). Fractions bearing product (confirmed by UPLC-MS sampling of fraction tubes) were pooled and dried by rotary evaporation. The product was then resuspended in a minimal quantity of water, transferred to a pre-weighed 20 mL vial, frozen, and lyophilized.

DsaD [4] = biological target: T1, DsaD; experiment: H/D exchange of L-Ile with DsaD alone (steady-state kinetics); assay type: biochemical
Procedure: (§4) FIGS. 2A-2E. Steady-state kinetic analysis of H/D exchange by the Ile epimerization system. FIG. 2A. Steady-state kinetic analysis describing Cβ-deuteration^a of L-Ile under varied equivalents of partner enzyme DsaE. FIG. 2B. Steady-state kinetic analysis of Cβ-deuteration rates^a at a constant 1 mM L-Ile, measured against increasing equivalents of DsaE. FIG. 2C. Steady-state kinetic analysis of Cα-deuteration^a of L-Ile in the presence and absence of partner protein DsaE. FIG. 2D. Proposed mechanism of selective deuterium incorporation at Cα and Cβ catalyzed by dual protein catalysis. FIG. 2E. UV-visible spectrum of DsaD in the absence and presence of L-Ile.^a Measurement of initial rates was performed in duplicate at 24° C. […] Following quench with MeCN, crude reaction products were subjected to functionalization with Marfey's reagent (L-FDAA) to enable analysis by reverse-phase chromatography and quantification of isotope incorporation by mass spectrometry.
(§5) Kinetic analysis of biocatalytic L-Ile deuteration: Initial rates of α- or β-deuteration were obtained by means of end-point assay using the quantitation protocol for analytical scale reactions as described above. […] Michaelis constants (KM) for α- and β-deuteration of L-Ile were determined using the concentration range of 0.1-10 mM L-Ile using 3 μM DsaD. […]

DsaD/DsaE complex = DsaD/DsaE complex (Streptomyces scopuliridis, UniProt A0A0D5CCB2); experiment: Steady-state kinetic analysis of H/D exchange of L-Ile by DsaD with partner protein DsaE; assay type: biochemical
DsaD/DsaE complex, sequence (A0A0D5CBB6 entry or part of it, one chain of several): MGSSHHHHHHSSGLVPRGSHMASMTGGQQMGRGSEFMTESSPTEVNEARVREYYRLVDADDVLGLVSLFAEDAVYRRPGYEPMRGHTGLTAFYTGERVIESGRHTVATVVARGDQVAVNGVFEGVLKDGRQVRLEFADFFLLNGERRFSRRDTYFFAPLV
Procedure: FIGS. 2A-2E. Steady-state kinetic analysis of H/D exchange by the Ile epimerization system. FIG. 2A. Steady-state kinetic analysis describing Cβ-deuteration^a of L-Ile under varied equivalents of partner enzyme DsaE. FIG. 2B. Steady-state kinetic analysis of Cβ-deuteration rates^a at a constant 1 mM L-Ile, measured against increasing equivalents of DsaE. FIG. 2C. Steady-state kinetic analysis of Cα-deuteration^a of L-Ile in the presence and absence of partner protein DsaE. FIG. 2D. Proposed mechanism of selective deuterium incorporation at Cα and Cβ catalyzed by dual protein catalysis. FIG. 2E. UV-visible spectrum of DsaD in the absence and presence of L-Ile.^a Measurement of initial rates was performed in duplicate at 24° C. Conditions: 0.1-10 mM L-Ile, 3 μM DsaD, 50 mM sodium phosphate (pD 8.4), and 0.1 mM PLP in D2O (99.9%). Proteins were exchanged into a 50 mM sodium phosphate-D2O (pD 8.4) solution prior to reaction initiation to minimize proton contamination (<1% H2O). Following quench with MeCN, crude reaction products were subjected to functionalization with Marfey's reagent (L-FDAA) to enable analysis by reverse-phase chromatography and quantification of isotope incorporation by mass spectrometry.
(§6) Marfey's derivatization of analytical scale reactions: Derivatization of the resulting analytical scale product mixture (to increase overall signal and enable reverse phase chromatographic analysis) was achieved by treatment with Marfey's reagent^2 (1-fluoro-2-4-dinitrophenyl-5-L-alanine amide, L-FDAA) using the following protocol. 25 μL of quenched reaction mix (final amine concentration, 1.6 mM) was added to an Eppendorf tube with 50 μL of 15 mM NaHCO3 (final concentration, 5 mM) and 75 μL of 5 mM L-FDAA (final concentration, 2.5 mM). Derivatization reactions were carried out for 10-12 h before quenching with 150 μL of 60 mM HCl dissolved in acetonitrile. Final reaction analysis was carried out by UPLC-DAD-MS and quantitation as described below.
(§7) Quantitation of deuteration in analytical scale reactions: Deuteration reactions were analyzed by UPLC-DAD-MS with single ion recording (SIR) channels set to record a spectrum with the appropriate isotopic mass in positive mode. The area under the curve of recorded SIR peaks was obtained and normalized to account for natural isotopic abundance distributions (e.g. ^13C, ^15N, ^2H, ^34S, etc). Percent deuterium incorporation was calculated by the formula below. These measurements were carried out in an iterative fashion to measure Cα deuteration and Cβ deuteration.
Kinetic analysis of biocatalytic L-Ile deuteration: Initial rates of α- or β-deuteration were obtained by means of end-point assay using the quantitation protocol for analytical scale reactions as described above. All reagents were prepared in D2O (99.9% D) and protein stocks were dialyzed (3 exchanges over 3 h at 4° C.) into 50 mM sodium phosphate buffer dissolved in D2O (pD 8.4) using a slide-a-lyzer device with a 3,000 Da cutoff. Reactions were performed at 25° C. in 1 mL Eppendorf tubes. Michaelis constants (KM) for α- and β-deuteration of L-Ile were determined using the concentration range of 0.1-10 mM L-Ile using 3 μM DsaD. Partner protein (DsaE) concentrations were consistent within each experiment and separate experiments were performed using varied equivalents of partner protein (0-50 equiv). Initial velocities were measures in duplicate or triplicate for at least 6 different substrate concentrations for each set of conditions tested. Measurements of the impact of partner protein (DsaE) concentration on the initial rate of β-deuteration were carried out using 1 mM L-Ile, 3 μM DsaD and varying DsaE concentrations between 3 μM-600 μM (1-200 equiv). Under the minimal proton contamination conditions of this assay (99.9% D2O), Cα and Cβ deuteration are assumed to have occurred without back transfer to proton. The data were fit using the Michaelis-Menten equation implemented in Prism.

DsaD [5] = biological target: T1, DsaD; experiment: Preparative-scale Cα-deuteration with DsaD clarified lysate in D2O; assay type: biochemical; settings: DsaD lysate only
Procedure: as §1, §2
as §3, with “Supernatant was transferred to a clean beaker, the decanted supernatant was concentrated to remove acetone by rotary evaporation and loaded onto a preparative reverse-phase C18 column pre-equilibrated with water. Purification was performed via gradient elution on an Isolera One Flash Purification system (Biotage). Fractions bearing product (confirmed by UPLC-MS sampling of fraction tubes) were pooled and dried by rotary evaporation.” left out

DsaD/E system = experiment: Two-step Cα/Cβ deuteration then Cα deuterium washout with DsaD in H2O; assay type: biochemical, Streptomyces scopuliridis; settings: for deuterium incorporation at Cβ: lower substrate loading (10 mM), after Cα washout
Procedure: as §3
An initial reaction was performed with DsaD and DsaE to produce Cα,Cβ-deuterated L-Leu-2,3,3-d3 (25). Following reaction quenching with acetone, centrifugation to remove protein products, and removal of acetone and D2O via rotary evaporation, the dry crude product mixture was subjected to standard reaction conditions with DsaD in water. This reaction led to washout of the Cα deuterium, providing exclusively Cβ-deuterated L-Leu-3,3-d2 (44) with high levels of deuterium incorporation at Cβ (FIG. 5, 86% D incorporation and 98% ee). The site of H/D exchange in these reactions is dictated by the presence or absence of DsaE from the reaction conditions, enabling control of amino acid deuteration patterns.
We performed Cα/Cβ deuteration on a panel of amino acids, quenched the reactions and resubjected the crude product to Cα deuterium washout with DsaD in H2O. […]

DsaD/E complex [6] = experiment: Analytical-scale Cα/Cβ H/D exchange with purified DsaD and DsaE; assay type: biochemical, Streptomyces scopuliridis; settings: 10 mM substrate, 5 μM DsaD, 50 μM DsaE (10:1), 37° C., 8 h
Procedure: FIGS. 3A-3C. Optimization of H/D exchange reactions and evaluation of the substrate scope. FIG. 3A. Optimization of Cβ-deuteration by increasing equivalents of partner protein DsaE. FIG. 3B. Evaluation of substrate scope of dual-protein-catalyzed Cα/Cβ deuteration under optimized conditions. FIG. 3C. UV-visible spectroscopy used to evaluate non-native substrate binding to DsaD. Reaction conditions: 10 mM amino acid substrate, 50 μM DsaE, 5 μM DsaD (10:1), 50 mM sodium phosphate (pD 8.4), 0.1 mM PLP, D2O, 37° C., 8 h. Reactions performed in duplicate, and percentage isotope incorporation is reported as the average of the replicates.
General procedure analytical scale deuteration reactions: α/β deuteration reactions were performed as follows. A 1 mL Eppendorf tube was charged with amino acid (10-20 mM final concentration), Na3PO4 buffer pD 8.4 (50 mM final concentration), PLP (100 μM final concentration), purified enzymes or appropriate lysate and D2O and to the appropriate final volume (typically 50 μL). Reactions were carried out at 37° C. for 8 h and quenched by the addition of 3 volumes of acetonitrile. Precipitated biomolecules were pelleted by centrifugation (16,000×g, 10 min) and samples were processed as described below.
as §6, §7

[7] = substrate: CC[C@H](C)[C@H](N)C(=O)O; experiment: H/D exchange of L-Ile with DsaD alone (steady-state kinetics); assay type: biochemical, Streptomyces scopuliridis; settings: other: DsaD alone; pH 8.4
Procedure: as §4, §5

[8] = lower substrate loading (10 mM)

CC[C@H](C)[C@H](N)C(=O)O [Ile, isoleucine]
major product of H/D exchange (DsaD/E complex [1]): 1:1 mixture of d2-2,3-L-Ile and d2-2,3-L-allo-Ile
substrate binding to DsaD by UV-vis (DsaD [2]): appearance of a new absorbance band at 328 nm
deuteration at Cα (DsaD/E complex [3]; >600 mg scale): 95%
deuteration at Cβ (DsaD/E complex [3]; >600 mg scale): 93%
kcat of Cα exchange (DsaD [4]; DsaD alone): 1.04 ± 0.04 s⁻¹
H/D exchange with just DsaD (DsaD [4]; excluding partner protein DsaE): a single H/D exchange event
change of observed kcat or KM for Cα-deuteration (DsaD/DsaE complex; 150 μM DsaE (50:1 DsaE:DsaD)): did not significantly impact
change of kcat of Cβ-deuteration (DsaD/DsaE complex; 5 equiv. of DsaE (5:1 DsaE:DsaD) vs one equivalent): did not significantly change
decrease in observed KM of Cβ-deuteration (DsaD/DsaE complex; 5 equiv. vs one equivalent of DsaE): 11 fold
increase in kcat of Cβ-deuteration (DsaD/DsaE complex; 50 equiv. of DsaE (50:1 DsaE:DsaD)): ~4 fold
kcat of Cβ-deuteration (DsaD/DsaE complex; one equivalent of DsaE, 3 μM DsaD, D2O pD 8.4): 0.07 ± 0.007 s⁻¹
kcat of Cα-deuteration (DsaD/DsaE complex; with DsaE bound): 0.75 ± 0.01 s⁻¹

[2H][C@](N)(CC(C)C)C(=O)O [L-Leu-2-d]
D incorporation at Cα (DsaD [5]): 95%
ee (DsaD [5]): > 99 % ee

[2H]C([2H])(C(C)C)[C@H](N)C(=O)O [L-Leu-3,3-d2]
D incorporation at Cβ (DsaD/E system; after Cα washout with DsaD in water): 86%

N[C@@H](Cc1ccccc1)C(=O)O [Phe, phenylalanine]
D-incorporation at Cα (DsaD/E complex [6]): high Cα deuteration
D-incorporation at Cβ (DsaD/E complex [6]): 67%
deuterium incorporation at Cβ (DsaD/E system): 91%

N[C@@H](Cc1ccc(O)cc1)C(=O)O [Tyr, tyrosine]
D-incorporation at Cα (DsaD/E complex [6]): 99%
D-incorporation at Cβ (DsaD/E complex [6]): 27%
deuterium incorporation at Cα (DsaD/E complex [3]; [8]): 95%
deuterium incorporation at Cβ (DsaD/E complex [3]; [8]): 49%
deuterium incorporation at Cβ (DsaD/E system): 40%

B1: DsaD (Streptomyces scopuliridis) (protein)
chain: MGSSHHHHHHSSGLVPRGSHMASMTGGQQMGRGSEFMHIVTTPVARPLTAQERTERCAAPAFGTAFTEHMVSARWNPEQGWHDAELVPYGPLLLDPATVGLHYGQVVFEGLKAFRSHTGEVAVFRPDAHAERMRASARRLMMPEPPEELFLAAVDALVAQDQEWIPDDPGMSLYLRPILFASERTLALRPAREYRFLLVAFITEGYFGPAQRPVRVWVTDEYSRAAAGGTGAAKCAGNYAGSLLAQEEAQRKGCDQVVWLDPVERNWVEEMGGMNLFFVYEAGGSARLVTPPLTGSLLPGVTRDALLRLAPTLGVPVSEAPLSLEQWRADCASGAITEVFACGTAARISPVNEVSTKDGSWTIGAGAPAEGGVAAGEVTGRLSAALFGIQRGELPDSHSWMRPVSPARQSAIT
Km [7]: 700 ± 100 µM
